Patent US7247617B2, “Sixteen-member macrolide antiinfective agents” (Kosan Biosciences Incorporated, priority 2004, dated 2007)

Experiments:
S. pneumoniae = assay: Biological activity against bacterial strains: S. pneumoniae; assay type: cell-based, Streptococcus pneumoniae; parameters: Biological Activity, S. pneumoniae ATCC6301 / Biological Activity, S. pneumoniae ATCC700671 / Biological Activity, S. pneumoniae ATCC700676* / Biological Activity, S. pneumoniae ATCC700677* / Biological Activity, S. pneumoniae ATCC700905* / Biological Activity, S. pneumoniae ATCC700906* / Biological Activity, S. pneumoniae ATCC49619: unit not given here; conditions: for Biological Activity, S. pneumoniae ATCC6301: strain ATCC6301; for Biological Activity, S. pneumoniae ATCC49619: strain ATCC49619; for Biological Activity, S. pneumoniae ATCC700671: strain ATCC700671; for Biological Activity, S. pneumoniae ATCC700676*: strain ATCC700676, macrolide resistant strain; for Biological Activity, S. pneumoniae ATCC700677*: strain ATCC700677, macrolide resistant strain; for Biological Activity, S. pneumoniae ATCC700905*: strain ATCC700905, macrolide resistant strain; for Biological Activity, S. pneumoniae ATCC700906*: strain ATCC700906, macrolide resistant strain
S. aureus = assay: Biological activity against bacterial strains: S. aureus; assay type: cell-based, Staphylococcus aureus; parameters: unit not given here; conditions: for Biological Activity, S. aureus ATCC6538p: strain ATCC6538p; for Biological Activity, S. aureus ATCC14154*: strain ATCC14154, macrolide resistant strain; for Biological Activity, S. aureus ATCC29213: strain ATCC29213; for Biological Activity, S. aureus ATCC33591*: strain ATCC33591, macrolide resistant strain; for Biological Activity, S. aureus ATCCBAA-39*: strain ATCCBAA-39, macrolide resistant strain; for Biological Activity, S. aureus ATCCBAA-44*: strain ATCCBAA-44, macrolide resistant strain
S. epidermidis = assay: Biological activity against bacterial strains: S. epidermidis; assay type: cell-based, Staphylococcus epidermidis; conditions: strain ATCC12228
E. faecalis = assay: Biological activity against bacterial strains: E. faecalis; assay type: cell-based, Enterococcus faecalis; conditions: strain ATCC51575

Structure (SMILES) | Biological Activity, S. pneumoniae ATCC6301 (S. pneumoniae) | Biological Activity, S. pneumoniae ATCC49619 (S. pneumoniae) | Biological Activity, S. pneumoniae ATCC700671 (S. pneumoniae) | Biological Activity, S. pneumoniae ATCC700676* (S. pneumoniae) | Biological Activity, S. pneumoniae ATCC700677* (S. pneumoniae) | Biological Activity, S. pneumoniae ATCC700905* (S. pneumoniae) | Biological Activity, S. pneumoniae ATCC700906* (S. pneumoniae) | Biological Activity, S. aureus ATCC6538p (S. aureus) | Biological Activity, S. aureus ATCC14154* (S. aureus) | Biological Activity, S. aureus ATCC29213 (S. aureus) | Biological Activity, S. aureus ATCC33591* (S. aureus) | Biological Activity, S. aureus ATCCBAA-39* (S. aureus) | Biological Activity, S. aureus ATCCBAA-44* (S. aureus) | Biological Activity, S. epidermidis ATCC12228 (S. epidermidis) | Biological Activity, E. faecalis ATCC51575 (E. faecalis)
CCC1OC(=O)CC(O)C(C)C(OC2OC(C)C(O)C(N(C)C)C2O)C(CC=O)CC(C)C(=NOCC(=O)N2CCN(c3ccccc3)CC2)C=CC(C)=CC1CO (stereo not drawn) [Compound C] | 0.025 | 0.01 | 0.025 | 0.39 | 6.25 | 0.20 | >12.5 | 0.78 | 1.56 | 1.56 | >12.5 | >12.5 | >12.5 | 0.20 | >12.5
CO[C@@H]1[C@@H](OC2OC(C)C(O)C(N(C)C)C2O)[C@@H](CC=O)C[C@@H](C)C(=N/OCCCOc2ccc3ncccc3c2)/C=C/C=C/C[C@@H](C)OC(=O)C[C@H]1O (stereo partly drawn) [Compound HH] | 0.025 | 0.025 | 0.025 | 0.025 | 3.12 | 0.025 | >12.5 | 0.2 | 0.78 | 3.12 | >12.5 | >12.5 | >12.5 | 0.78 | >12.5
CCC1OC(=O)CC(O)C(C)C(OC2OC(C)C(O)C(N(C)C)C2O)C(CC=O)CC(C)C(=NOCC=Cc2ccc3nccnc3c2)C=CC(C)=CC1CO (stereo not drawn) [Compound H] | 0.025 | 0.025 | 0.049 | 0.049 | >12.5 | 0.049 | >12.5 | 0.20 | 0.39 | 0.39 | >12.5 | >12.5 | >12.5 | 0.20 | >12.5
CC[C@H]1OC(=O)C[C@@H](O)[C@H](C)[C@@H](OC2OC(C)C(O)C(N(C)C)C2O)[C@@H](CC=O)C[C@@H](C)C(=N/OCCOc2ccccc2)/C=C/C(C)=C/C1CO (stereo partly drawn) [Compound IIa] | 0.20 | 0.20 | 0.39 | 0.20 | 3.12 | 0.39 | >12.5 | 0.78 | 1.56 | 1.56 | >12.5 | >12.5 | >12.5 | 1.56 | >12.5
CC[C@H]1OC(=O)C[C@@H](O)[C@H](C)[C@@H](OC2OC(C)C(O)C(N(C)C)C2O)[C@@H](CC=O)C[C@@H](C)C(=N\OCc2ccc(F)cc2)/C=C/C(C)=C/C1CO (stereo partly drawn) [Compound IIc] | 0.2 | 0.2 | 0.39 | 0.2 | 3.12 | 0.39 | >12.5 | 0.78 | 1.56 | 1.56 | >12.5 | >12.5 | >12.5 | 1.56 | >12.5
CC[C@H]1OC(=O)C[C@@H](O)[C@H](C)[C@@H](OC2OC(C)C(O)C(N(C)C)C2O)[C@@H](CC=O)C[C@@H](C)C(=N/OCc2ccc(F)cc2)/C=C/C(C)=C/C1CO (stereo partly drawn) [Compound IId] | 0.025 | 0.2 | 0.2 | 0.025 | 1.56 | 0.2 | >12.5 | 0.39 | 1.56 | 1.56 | >12.5 | >12.5 | >12.5 | 0.78 | >12.5
CCC1OC(=O)CC(O)C(C)C(OC2OC(C)C(O)C(N(C)C)C2O)C(CCN2CC(C)CC(C)C2)CC(C)C(=NOCCOc2ccccc2)C=CC(C)=CC1COC1OC(C)C(O)C(OC)C1OC (stereo not drawn) [Compound O] | 0.39 | 0.78 | 0.39 | 1.56 | 6.25 | 0.78 | 12.5 | 0.20 | 0.78 | 0.39 | >12.5 | >12.5 | >12.5 | 0.39 | >12.5
CCC1OC(=O)CC(O)C(C)C(OC2OC(C)C(O)C(N(C)C)C2O)C(CCN2CC(C)CC(C)C2)CC(C)C(=NOCCCOc2ccc3ncccc3c2)C=CC(C)=CC1CO (stereo not drawn) [Compound R] | 6.25 | 6.25 | 6.25 | >12.5 | >12.5 | >12.5 | >12.5 | 12.5 | >12.5 | >12.5 | >12.5 | >12.5 | >12.5 | >12.5 | >12.5
